Entries after “also recorded” stand apart in the source; their conditions may differ. Each block holds one molecule with its values, some of them ahead of it. FAM = carboxyfluorescein
Key:
HDM2 (1-125) M62A = target: T1, HDM2 (1-125) M62A (Homo sapiens, UniProt Q00987, M62A); test: Fluorescence anisotropy, competitive titration, HDM2 M62A; format: binding; conditions: M62A compared to wild-type
T1 construct: using purified HDM2 (1-125) and carboxyfluorescein (FAM) labeled 12-1 peptide; GST (N, cleaved yes); made in house; host or cells: E. coli BL21 DE3
Description: (§1) Cells harbouring the GST fusion constructs were grown in LB medium at 37°C to an OD600 of ~0.6 and induction was carried out with 1 mM IPTG at room temperature. Cells were harvested by centrifugation and the cell pellets were resuspended in 50 mM Tris pH 8.0, 10% sucrose and then sonicated. The sample was next centrifuged for 60 mins at 17,000 g at 4°C. The supernatant was applied to a 5 mL FF GST column (Amersham) pre-equilibrated in wash buffer (50 mM Tris-HCl pH 8.0, 150 mM NaCl, 1 mM DTT). The column was then further washed by 6 volumes of wash buffer. HDM2 constructs were then purified from the column by cleavage with Precission protease (GE Lifesciences). 10 units of precission protease, in one column volume of wash buffer, were injected onto the column. The cleavage reaction was allowed to proceed overnight at 4°C. The cleaved protein was then eluted off the column with wash buffer. Protein fractions were analyzed with SDS page gel and concentrated using Centricon (3.5 kDa MWCO) concentrator. […] Protein fractions were analyzed with SDS page gel and concentrated using a Centricon (3.5 kDa MWCO) concentrator, Millipore.
(§2) All titrations were carried out in triplicate. Curve-fitting was carried out using Prism 4.0 (GraphPad).

HDM2 (1-125) Q24R = target: T2, HDM2 (1-125) Q24R (Homo sapiens, UniProt Q00987, Q24R); test: Fluorescence anisotropy, competitive titration, HDM2 Q24R; format: binding; conditions: Q24R compared to wild-type
T2 construct: using purified HDM2 (1-125) and carboxyfluorescein (FAM) labeled 12-1 peptide; GST (N, cleaved yes); made in house; host or cells: E. coli BL21 DE3
Description: as §1, §2

HDM2 (1-125) P20L = target: T3, HDM2 (1-125) P20L (Homo sapiens, UniProt Q00987, P20L); test: Fluorescence anisotropy, competitive titration, HDM2 P20L; format: binding; conditions: P20L compared to wild-type
T3 construct: using purified HDM2 (1-125) and carboxyfluorescein (FAM) labeled 12-1 peptide; GST (N, cleaved yes); made in house; host or cells: E. coli BL21 DE3
Description: as §1, §2

[1] = tested on: HDM2-p53 interaction (wild-type HDM2); test: In vitro pull-down assay, p53-HDM2 wild-type; format: binding; conditions: 10 µM, IVT-expressed proteins
Excerpt: (§3) Single mutant HDM2 clones were generated by Quickchange mutagenesis (Stratagene) of parental HDM2-PET22b using appropriate primers 1-6. The constructs were amplified with primers petF2 and petR to make HDM2 amplicons with T7 promoter and ribosome binding site required for in vitro transcription-translation (IVT) of wild-type or mutant HDM2. Primers 1-6 were used to introduce mutations into the parental pCMV-HDM2 mammalian expression construct by Quickchange mutagenesis. Both the HDM2-PET22b and pCMV-HDM2 constructs additionally encode a C-terminal HA tag. The plasmid p53-PET22b was also amplified with petF2 and petR to make template for IVT of wild-type p53.
Protein G beads (Invitrogen) were incubated with anti-HA (1 µg per 10 µL beads) for 1 hour in PBST-3%BSA and subsequently washed twice in PBST-0.1%BSA. IVT-expressed wild-type or mutant HDM2 was incubated with the beads on a rotator for 30 mins. […] IVT-expressed p53 was added to the mixture and incubation allowed for 1 hour. Beads were finally washed thrice in PBST-0.1%BSA and thrice with PBS, and bound proteins eluted by resuspension in 20 µL SDS-PAGE loading buffer and incubation at 95°C for 5 minutes. […]

[2] = tested on: HDM2-p53 interaction (M62A HDM2); test: In vitro pull-down assay, p53-HDM2 M62A; format: binding; conditions: 10 µM, IVT-expressed proteins
Excerpt: as §3, with “tag.” for “tag. The plasmid p53-PET22b was also amplified with petF2 and petR to make template for IVT of wild-type p53.”
(§4) Protein G beads (Invitrogen) were incubated with anti-HA (1 µg per 10 µL beads) for 1 hour in PBST-3%BSA and subsequently washed twice in PBST-0.1%BSA. IVT-expressed wild-type or mutant HDM2 was incubated with the beads on a rotator for 30 mins. […] IVT-expressed p53 was added to the mixture and incubation allowed for 1 hour. Beads were finally washed thrice in PBST-0.1%BSA and thrice with PBS, and bound proteins eluted by resuspension in 20 µL SDS-PAGE loading buffer and incubation at 95°C for 5 minutes. Both the eluates and inputs were subjected to electrophoresis, transferred to nitrocellulose membranes and probed for p53 with horseradish peroxidise conjugated DO1 antibody (Santa Cruz) or for HDM2 with anti-HA antibody followed by rabbit anti-mouse (Dakocytomation).

[3] = tested on: HDM2-p53 interaction (Q24R HDM2); test: In vitro pull-down assay, p53-HDM2 Q24R; format: binding; conditions: 10 µM, IVT-expressed proteins
Excerpt: as §3, with “tag.” for “tag. The plasmid p53-PET22b was also amplified with petF2 and petR to make template for IVT of wild-type p53.”
as §4

[4] = tested on: wild-type HDM2 / p53 transactivation in p53/MDM2-null DKO cells; test: p53 reporter assay in p53/MDM2-null DKO cells, wild-type HDM2; format: cell-based, mouse; conditions: stapled peptide, 20 µM, mean ± SD (n=2)
Description: (§5) Mouse embryonic fibroblast p53/Mdm2 double-knockout (DKO) cells (a kind gift from Guillermina Lozano) [30] and H1299 p53^−/− cells [31] were maintained in Dulbecco's modified Eagle's medium (DMEM) with 10% (v/v) foetal calf serum (FCS) and 1% (v/v) penicillin/streptomycin. The cells were seeded at 1.0 × 10^5 cells/well in 6-well plates, 24 hours prior to transfection. Cells were co-transfected with wild-type or mutant HDM2 plasmid, p53-pcDNA plasmid, LacZ reporter plasmid and luciferase plasmid using TurboFect transfection reagent (Thermo Scientific) according to the manufacturer’s instructions. […] In all cases, the total amount of plasmid DNA transfected per well was equilibrated by addition of the parental vector pcDNA3.1a(+).
(§6) DKO cells were harvested 24hours after transfection and β-galactosidase activities were assessed using the Dual-light System (Applied Biosystems) according to the manufacturer's protocol. The β-galactosidase activity was normalized with luciferase activity for each sample.

[5] = tested on: M62A HDM2 / p53 transactivation in p53/MDM2-null DKO cells; test: p53 reporter assay in p53/MDM2-null DKO cells, HDM2 M62A; format: cell-based, mouse; conditions: stapled peptide, 20 µM, mean ± SD (n=2)
Description: as §5, §6

[6] = tested on: wild-type and mutant (M62A, Q24R) HDM2; p53-dependent genes in HCT116 p53^+/+ cells; test: RT-qPCR of p53-regulated genes in HCT116 p53+/+ cells transfected with HDM2 variants; format: cell-based; conditions: Nutlin 10 µM; M62A and Q24R compared to wild-type; 24 h post-transfection; RT-qPCR (n=2)
Excerpt: In all cases, the total amount of plasmid DNA transfected per well was equilibrated by addition of the parental vector pcDNA3.1a(+).

[7] = tested on: p53 (1-81) - HDM2 (7-134) interaction, wild-type, Q24R and M62A, in BHK cells; test: Fluorescent 2-Hybrid (F2H) co-localization assay; format: cell-based; conditions: 1 hour at 37°C, titration, difference particularly evident at 1-10 µM for Nutlin, n=4
Description: Interaction (%) was determined as the ratio of cells showing co-localization of fluorescent signals at the nuclear spot to the total number of evaluated cells. To enable comparison between the experiments, a normalization step was performed. For each independent experiment, the interaction ratios in treated wells were normalized to the interaction ratios in control (untreated) wells:
I % = 100% * Interactions_treated/Interactions_untreated
In this way, the control values in each experiment are taken to be 100%. For automated image acquisition an INCell Analyzer 1000 with a 20X objective (GE Healthcare) was used. Automated image segmentation and analysis was performed with the corresponding INCell Workstation 3.6 software. At least 100 co-transfected cells were analyzed per well. Titrations were carried out independently three to five times.
For the F2H assay, significance (t-test) is denoted relative to the percentage interactions observed for wild-type HDM2 under the indicated treatment conditions. For transcript analysis by real-time PCR, two-way ANOVA with Bonferroni post test was performed using GraphPad Prism software.

HDM2 Y104G = conditions: mutation in secondary Nutlin binding site; ref [54]; cited from earlier work
Excerpt: Studies have shown that K51 of HDM2 interacts with E23 and E25 of HDM ...

HDM2 M62 = conditions: ref [19]; cited from earlier work
Excerpt: Modelling studies show the hydrophobic hydrocarbon chain comprising the staple interacts with HDM2 in the vicinity of M62 (Figure 6). Whilst the M62A mutation impacts negatively on binding of both stapled peptide and p53 compared to wild type HDM2, the presence of additional “fall-back” interactions (apart from M62, see below) results in marginal overall loss of binding by these ligands. […] Mutation to alanine causes marg ...

[8] = target: T4, HDM2 (1-125), wild-type, purified (human, UniProt Q00987 1-125); test: fluorescence polarisation; competitive fluorescence anisotropy titrations against FAM-labelled 12-1 peptide with purified HDM2 (1-125); apparent Kds; PBS pH 7.4, 3% DMSO, 0.1% Tween 20
T4 construct: source: E. coli BL21 DE3, purified (GST column, PreScission cleavage, ResourceS)

[9] = target: T5, HDM2 (1-125) M62A, purified (human, UniProt Q00987 1-125, M62A); test: as above
T5 construct: also called HDM2-M62A; source: E. coli BL21 DE3, purified (GST column, PreScission cleavage, ResourceS)

[10] = target: T6, HDM2 (1-125) Q24R, purified (human, UniProt Q00987 1-125, Q24R); test: as above
T6 construct: source: E. coli BL21 DE3, purified (GST column, PreScission cleavage, ResourceS)

[11] = target: T7, HDM2 (1-125) P20L, purified (human, UniProt Q00987 1-125, P20L); test: as above
T7 construct: source: E. coli BL21 DE3, purified (GST column, PreScission cleavage, ResourceS)
T7 sequence (Q00987 1-125 P20L): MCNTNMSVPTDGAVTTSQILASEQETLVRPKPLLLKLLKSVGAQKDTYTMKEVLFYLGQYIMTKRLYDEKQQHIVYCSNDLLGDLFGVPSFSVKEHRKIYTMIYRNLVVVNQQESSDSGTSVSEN

T5 sequence (Q00987 1-125 M62A): as the sequence (Q00987 1-125 P20L) above, with L20P, M62A counted along it
T4 sequence (Q00987 1-125): as the sequence (Q00987 1-125 P20L) above, with L20P counted along it
T6 sequence (Q00987 1-125 Q24R): as the sequence (Q00987 1-125 P20L) above, with L20P, Q24R counted along it
T1 sequence (Q00987 1-125 M62A): as the sequence (Q00987 1-125 P20L) above, with L20P, M62A counted along it
T3 sequence (Q00987 1-125 P20L): as the sequence (Q00987 1-125 P20L) above
T2 sequence (Q00987 1-125 Q24R): as the sequence (Q00987 1-125 P20L) above, with L20P, Q24R counted along it

Change of binding affinity versus wild-type HDM2 (HDM2 (1-125) M62A): very slight perturbation of binding
Change of binding affinity versus wild-type HDM2 (HDM2 (1-125) Q24R): not perturbed
Change of binding affinity versus wild-type HDM2 (HDM2 (1-125) P20L): not perturbed
Molecule: CC(=O)N[C@H](C(=O)N[C@@H](CO)C(=O)N[C@@H](Cc1ccccc1)C(=O)N[C@]1(C)CCCCCCC=CCCC[C@@](C)(C(N)=O)NC(=O)[C@H](CC(C)C)NC(=O)[C@H](CC(C)C)NC(=O)[C@H](C)NC(=O)[C@H](Cc2c[nH]c3cc(Cl)ccc23)NC(=O)[C@H](Cc2ccc(O)cc2)NC(=O)[C@H](CCC(=O)O)NC1=O)[C@@H](C)O [MO11]
Inhibition of p53-HDM2 interaction (pull-down, Western blot) [1]: strong repression of the HDM2-p53 interaction; also recorded: inhibition of p53 binding to both WT and mutant HDM2
Inhibition of p53-HDM2 interaction (pull-down, Western blot) [2]: able to abrogate the mutant HDM2-p53 interaction as efficiently as Nutlin inhibits the wild-type HDM2-p53 interaction; also recorded: inhibition of p53 binding to both WT and mutant HDM2
Inhibition of p53-HDM2 interaction (pull-down, Western blot) [3]: able to abrogate the mutant HDM2-p53 interaction as efficiently as Nutlin inhibits the wild-type HDM2-p53 interaction; also recorded: inhibition of p53 binding to both WT and mutant HDM2
p53 reporter activity restored (percentage of activity with p53-only transfection) [4]: 51%
p53 reporter activity restored (percentage of activity with p53-only transfection) [5]: 47%

Molecule: COc1ccc(C2=N[C@@H](c3ccc(Cl)cc3)[C@@H](c3ccc(Cl)cc3)N2C(=O)N2CCNC(=O)C2)c(OC(C)C)c1 [Nutlin]
Inhibition of p53-HDM2 interaction (pull-down, Western blot) [1]: strong repression of the HDM2-p53 interaction; also recorded: inhibits p53-HDM2 interaction
p53 activation of p21, gadd45α and 14-3-3σ transcript levels, mutants versus wild-type HDM2 [6]: significant reduction of p53 transcriptional activity was observed for the M62A and Q24R mutants compared to wild-type
Dissociation of p53-HDM2 complex, mutants (Q24R, M62A) versus wild-type (F2H) [7]: reduced dissociation of mutant N-terminal domains from p53, indicating Nutlin resistance; also recorded: increased dissociation of WT-p53 complex compared to Q24R/M62A-p53 complexes
Binding to HDM2 Y104G (HDM2 Y104G): recalcitrant to Nutlin binding
Effect of loss of M62 contact on Nutlin binding (HDM2 M62): major loss of binding

Kd [8]: 0.0139 µM
Kd [9]: 0.0296 µM
Kd [10]: 0.0104 µM
Kd [11]: 0.0172 µM
Molecule: P53 peptide (ligand of Table 1)

binding result ([8]; both partners purified): binds
binding result ([9]; both partners purified): binds
binding result ([10]; both partners purified): binds
binding result ([11]; both partners purified): binds
B1: carboxyfluorescein (FAM) labeled 12-1 peptide (FAM-RFMDYWEGL-NH2) (peptide)
peptide: {FAM}-RFMDYWEGL-NH2
notes: that it is not a natural p53 stretch is my surmise
